Test results reported in patent US20060165798A1, “Oral osmotic dosage form having a high flux membrane” (priority 2005, published 2006).

Type: physicochemical
Method: The measured values for the tested systems were Δπ=245 atmospheres, A=2.41 cm^2, S=333 mg/ ml. Thickness of the membrane was measured directly with a table micrometer. Osmotic pressure was measured on saturated solutions of potassium chloride at 37° C. using a Knauer model VPO vapor pressure osmometer and standard reference solutions of known osmotic pressure for comparison. Surface area of the tablet core was determined by first measuring the dimensions of the tablet core and then calculating surface area using standard mensuration formulae. Drug solubility was determined by measuring the concentration of a saturated solution of potassium chloride by conductivity analysis using a conductivity meter and reference solutions of potassium chloride of known aqueous concentrations. Average release rate was calculated by measuring the mass of potassium chloride released per 2-hour intervals of time according to the experimental procedures described in Example 3. Then, the total mass of potassium chloride released was summed for all whole 2-hour intervals between 20% and 70% (100 mg to 350 mg of potassium chloride) of the initial dose present within the dosage form (500 mg). Finally, the total mass of drug released during these whole intervals was divided by the sum of these time intervals to arrive at the average release rate. […]

With [Cl-].[K+] [potassium chloride] the “drug solubility S” value (saturated aqueous solution) was 333 mg/mL and the “osmotic pressure Δπ” value (saturated solution at 37° C.) was 245 atmospheres.
